The values below come from patent US6303596A, “Use of taurolidine for treatment of leukemias” (priority 2000, dated 2001).

Assay [1] relates to TNFα. As to the kind of experiment: LPS-induced TNFα expression/secretion by PBMC, ELISA. It counts as cell-based, human. As to conditions: taurolidine 100 μg/ml, 4 h. As to the method: FIG. 3A and FIG. 3B are graphs depicting taurolidine inhibition of LPS-induced alpha […] (TNFα) expression by monocytic cells as determined by assay procedures. FIG. 3A represents MM6 cells; FIG. 3B represents PBMC. The cells were induced with LPS (hatched bars: 100 ng/ml LPS in RPMI+10% BCS; solid bars: 10 ng/ml in AIM-V+0.01% BCS) in the presence of varying concentrations of taurolidine. After four hours, cell supernatants were collected for TNFα ELISA. Data are expressed as percent of TNFα levels measured in cell cultures treated with LPS alone (no taurolidine or vehicle). Experiments were performed with duplicate samples and were repeated at least three times. Values shown in FIG. 3A are from a representative experiment. Values shown in FIG. 3B are mean±SEM of three experiments.
Human peripheral blood mononuclear cells (PBMC) were isolated from heparinized blood by centrifugation using Histopaque as per manufacturer's instructions. The isolated PBMC were suspended in RPMI supplemented with 10% BCS and were used in experiments immediately thereafter. As determined by flow cytometry, PBMC were typically 11±2% monocytes and 80±13% lymphocytes, with the remaining cytometric events consistent in size with platelets and cell aggregates. […]

Assay [2] concerns other leukemia-derived cell lines. Kind of assay: growth after taurolidine treatment, other leukemia-derived cell lines. In kind it is cell-based, human. As to conditions: 50 μg/ml or greater. On the procedure:
In these experiments, integrity of cell membranes following taurolidine treatment was assessed by exclusion of trypan blue and by measuring the release of LDH in MM6, K-562, HL-60, and REH cells. Since BCS contains significant amounts of LDH, these experiments were conducted on cells cultured in AIM-V+0.01% BCS. Four hour treatment of cells was conducted in AIM-V containing 0.01% BCS in order to allow subsequent LDH assay without interference from BCS (which occurs in when normal culture medium, containing 10% BCS, is used). Thus, MM6 cells (5×10^5 cells/ml) were treated with taurolidine for four hours in AIM-V+0.01% BCS, after which an aliquot of the cell suspension was removed for measurement of LDH release. A parallel aliquot of cells was lysed by three cycles of freeze/thaw and the quantity of LDH released was taken to be 100%. Remaining cells were rinsed in HBSS and resuspended in growth medium for measurement of growth rates.
HL-60 cells treated with 50 μl taurolidine. In these samples, LDH present in the culture medium was 8.3±2.3% of that released by completely lysed cells, compared with 2.3±0.8% measured in control cultures. […] After 4 hour treatment, cells were rinsed and returned to growth medium and monitored for viability and growth over the following 3 days. […]

For `O=S1(=O)CCN(CN2CCS(=O)(=O)NC2)CN1` [taurolidine, 4,4'-methylenebis(perhydro-1,2,4-thiadiazin 1,1-dioxide)], in assay [1], the “inhibition of LPS-induced TNFα secretion” value is on record as “maximally inhibit TNFα secretion”. In addition, the “growth after taurolidine treatment” value in assay [2] is given as “inhibition of growth”.
